Assay results: the supplement of paper PMC11451515

How the values were obtained:
Experiment in all cases: AUC of viability dose-response curve (% viability x log10 dose units); higher = less sensitive
Details in all cases: 48 h
NOMO1 = tested on: NOMO1
Procedure, shortened: (§1)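 In 1536-well plates, leukemia cells adapted to each medium (500 or 1000 cells/well) were exposed for 48 h at 37°C to library compounds in DMSO across 11 threefold doses, 47 μM down to 0.79 nM. Viability was read by CellTiter-Glo One luminescence and normalised per plate to DMSO and cell-free wells. A four-parameter log-logistic fit over log10 doses was integrated by trapezoidal rule. This yielded the area under the curve, with over-full-viability curves scaled and quality-control failures dropped.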

P12-Ichikawa = tested on: P12-Ichikawa
Procedure, shortened: as §1

SEM cells = tested on: SEM cells
Procedure, shortened: as §1

[1] = RPMI 5 mM glucose + 10% dialyzed FBS

SMILES | AUC of viability dose-response curve (NOMO1; HPLM + 10% dialyzed FBS) | AUC of viability dose-response curve (NOMO1; RPMI 5 mM glucose + 10% FBS) | AUC of viability dose-response curve (NOMO1; [1]) | AUC of viability dose-response curve (P12-Ichikawa; HPLM + 10% dialyzed FBS) | AUC of viability dose-response curve (P12-Ichikawa; RPMI 5 mM glucose + 10% FBS) | AUC of viability dose-response curve (P12-Ichikawa; [1]) | AUC of viability dose-response curve (SEM cells; HPLM + 10% dialyzed FBS) | AUC of viability dose-response curve (SEM cells; RPMI 5 mM glucose + 10% FBS) | AUC of viability dose-response curve (SEM cells; [1])
C[N+](C)([O-])CCNc1ccc(NCC[N+](C)(C)[O-])c2c1C(=O)c1c(O)ccc(O)c1C2=O | 383 | 365 | 391 | 354 | 302 | 305 | 298 | 272 | 281
CN(C)C[C@@H]1CC[N]2C=C(C3=C2C=CC=C3)C/4=C(/C(=O)NC4=O)C5=C[N](CCO1)C6=C5C=CC=C6 | 443 | 423 | 425 | 458 | 453 | 459 | 391 | 412 | 393
CN(C)c1ccc(Nc2nc(N)n(C(=O)c3c(F)cccc3F)n2)cc1 | 452 | 465 | 459 | – | – | – | 396 | 361 | 370
O=c1[nH]cnc2c1ncn2[C@H]1CC[C@@H](CO)O1 | 447 | 420 | 431 | 468 | 463 | 444 | 460 | 409 | 409
Cc1[nH]c(/C=C2\C(=O)Nc3ccc([S+](=O)([O-])Cc4c(Cl)cccc4Cl)cc32)c(C)c1C(=O)N1CCC[C@@H]1CN1CCCC1 | 435 | 438 | 432 | 455 | 456 | 430 | 370 | 394 | 361
CC(=O)O[C@@]12CO[C@@H]1C[C@H](O)[C@]3(C)[C@@H]2[C@H](OC(=O)C4=CC=CC=C4)[C@]5(O)C[C@H](OC(=O)C(O)[C@@H](NC(=O)OC(C)(C)C)C6=CC=CC=C6)C(=C(/[C@@H](O)C3=O)C5(C)C)/C (some centres not stated) | 147 | 112 | 118 | 126 | 125 | 174 | 112 | 78.5 | 86.9
CC1(C)CC(O)CC(C)(C)N1[O] | 452 | 472 | 472 | 464 | 459 | 459 | – | – | –
Cc1ncc([N+](=O)[O-])n1CCO | 467 | 462 | 461 | 477 | 472 | 469 | 467 | 477 | 449
OC(COC1=C2C(=O)\C=C(/OC2=CC=C1)C([O-])=O)COC3=C4C(=O)\C=C(/OC4=CC=C3)C([O-])=O | 435 | 368 | 394 | – | – | – | – | – | –
Cc1c(C(=O)Nc2cccc(C(F)(F)F)c2)cc(-c2ccccc2)n1CCCN1CCOCC1 | 458 | 446 | 460 | 438 | 449 | 454 | 454 | 458 | 446
CN(C)CCCNC(=O)c1ccc(-c2cc(O)c3ncccc3c2)cc1 | 458 | 434 | 463 | 467 | 459 | 450 | 443 | 442 | 445
CC(C)(C)c1cc(C(=O)O)c(NC(=O)Nc2ccc3[nH]ncc3c2)s1 | 427 | 418 | 422 | 433 | 426 | 438 | 442 | 447 | 440
C[C@@H]1C[C@H]2[C@@H]3CC\C4=C\C(=O)\C=C/[C@]4(C)[C@@]3(Cl)[C@@H](O)C[C@]2(C)[C@@]1(OC(=O)C5=CC=CO5)C(=O)CCl | 442 | 454 | 451 | 313 | 265 | 234 | 245 | 236 | 222
CCN1C[C@]2(OC(=O)c3ccccc3NC(C)=O)CC[C@H](OC)[C@@]34[C@@H]2C[C@@H]([C@@H]13)[C@@]1(O)C[C@H](OC)[C@H]2C[C@@H]4[C@]1(O)[C@H]2OC | 477 | 465 | 477 | 473 | 475 | 469 | 461 | 439 | 430
CCCCCCCCCCCCCCCCCCOP(=O)([O-])OC1CC[N+](C)(C)CC1 | 469 | 470 | 467 | 470 | 462 | 465 | 455 | 468 | 442
OCCCNc1cc(-c2ccnc(Nc3cccc(Cl)c3)n2)ccn1 | 264 | 258 | 262 | 308 | 294 | 295 | 249 | 260 | 254
N[C@@H](CC(=O)N1CCn2c(nnc2C(F)(F)F)C1)Cc1cc(F)c(F)cc1F | 451 | 417 | 461 | 463 | 453 | 445 | 448 | 453 | 449
COC(=O)[C@@H](N)CCCNC(=N)N[N+](=O)[O-] | 467 | 427 | 461 | 452 | 462 | 452 | 426 | 444 | 432
COc1cc(OC)c(NC(=O)Nc2cc(C)on2)cc1Cl | 464 | 442 | 417 | 463 | 465 | 463 | 467 | 397 | 453
CN(C)c1ccc2cc(C(=O)N[C@@H](CCCNC(=N)CCl)C(=O)NCc3ccccc3)ccc2c1 | 443 | 447 | 451 | 451 | 446 | 449 | 450 | 434 | 444
COC[C@H]1OC(=O)C2=COC3=C2[C@@]1(C)\C4=C(\[C@@H]5CC[C@H](O)[C@@]5(C)C[C@H]4OC(C)=O)C3=O | 440 | 466 | 458 | – | – | – | – | – | –
N#CC(=C(/N)Sc1ccccc1N)/C(C#N)=C(\N)Sc1ccccc1N | 436 | 473 | 444 | 474 | 469 | 472 | 452 | 444 | 410
C=CCn1c(=O)c2cnc(Nc3ccc(N4CCN(C)CC4)cc3)nc2n1-c1cccc(C(C)(C)O)n1 | 310 | 338 | 316 | 336 | 362 | 354 | 299 | 301 | 270

SMILES | AUC of viability dose-response curve (NOMO1; HPLM + 10% dialyzed FBS) | AUC of viability dose-response curve (NOMO1; RPMI 5 mM glucose + 10% FBS) | AUC of viability dose-response curve (NOMO1; [1]) | AUC of viability dose-response curve (P12-Ichikawa; HPLM + 10% dialyzed FBS) | AUC of viability dose-response curve (P12-Ichikawa; RPMI 5 mM glucose + 10% FBS) | AUC of viability dose-response curve (P12-Ichikawa; [1]) | AUC of viability dose-response curve (SEM cells; HPLM + 10% dialyzed FBS) | AUC of viability dose-response curve (SEM cells; RPMI 5 mM glucose + 10% FBS) | AUC of viability dose-response curve (SEM cells; [1])
O=C(NNC(=O)c1ccc(CN[S+](=O)([O-])c2ccc(F)c(Cl)c2)cc1)c1ccccc1 | 468 | 437 | 438 | 460 | 466 | 470 | 463 | 449 | 423
COc1ccc2c(c1OC)CN1CCc3cc4c(cc3C1C2)OCO4 (configuration not stated) | 322 | 330 | 331 | 356 | 316 | 311 | 288 | 263 | 271
NC\1=N\C(=O)N(\C=C1)[C@H]\2[C@H](O)[C@H](O)C(=C2F)\CO | 369 | 378 | 369 | 361 | 394 | 389 | 376 | 421 | 353
C[C@@H]1CC[C@@]2(OC1)OC1CC3C4CC=C5CC(O)CCC5(C)C4CCC3(C)C1[C@@H]2C (some centres not stated) | 428 | 402 | 407 | 419 | 453 | 444 | 444 | 394 | 415
CN(C)CCN(Cc1ccc(Cl)cc1)c1ccccn1.Cl | 419 | 430 | 418 | 462 | 410 | 391 | 404 | 456 | 452
CC(C)(C)NC(=O)[C@H]1CC[C@H]2[C@@H]3CC[C@H]4NC(=O)\C=C/[C@]4(C)[C@H]3CC[C@]12C | 382 | 365 | 383 | 421 | 421 | 450 | 449 | 457 | 459
CNCC(O)C(O)C(O)C(O)CO.O=C(O)c1ccc(-c2cc3cccnc3c(-c3ccc4nonc4c3)n2)cc1 | 467 | 464 | 469 | 473 | 470 | 468 | 472 | 472 | 459
Cc1ccc(-c2ncn(-c3ccc(Nc4nccc(-c5cccc(N6CCOCC6)c5)n4)cc3)n2)cn1 | – | – | – | 259 | 244 | 235 | 229 | 226 | 217
COC1=CC=C(C=C1)C2CC(=N/N2C3=CC=C(C=C3)[S+](N)([O-])=O)\C4=CC=CC=C4 (configuration not stated) | 330 | 355 | 337 | 387 | 354 | 340 | 323 | 293 | 282
O=C(CCc1ccc(O)cc1)c1c(O)cc(O)cc1O[C@@H]1O[C@H](CO)[C@@H](O)[C@H](O)[C@H]1O | – | – | – | 428 | 405 | 408 | 454 | 426 | 412
CN[C@@H]1C[C@H]2O[C@@](C)([C@@H]1OC)n1c3ccccc3c3c4c(c5c6ccccc6n2c5c31)C(=O)N[C@H]4O | 279 | 264 | 289 | 280 | 249 | 271 | 220 | 226 | 232
Cc1cc(Cl)ccc1OCCCC(=O)NO | 438 | 428 | 444 | 400 | 380 | 336 | 411 | 418 | 403
CN[S+](=O)([O-])CCc1ccc2[nH]cc(C3CCN(C)CC3)c2c1 | 454 | 435 | 450 | 460 | 460 | 466 | 428 | 452 | 432
Cc1ccc(C(=O)c2cc(O)c(O)c([N+](=O)[O-])c2)cc1 | 447 | 424 | 456 | 468 | 449 | 434 | 435 | 466 | 434
O=C(CCCCCCC(=O)Nc1ccccc1)NO | 406 | 412 | 427 | 378 | 368 | 367 | 370 | 372 | 369
CCOC1=CC(=CC=C1C/2=N/[C@@](C)(C3=CC=C(Cl)C=C3)[C@](C)(N2C(=O)N4CCN(CC4)CC(=O)N5CCOCC5)C6=CC=C(Cl)C=C6)C(C)(C)C | – | – | – | 465 | 461 | 443 | 436 | 432 | 439
O=C1CCc2ccc(OCCCCN3CCN(c4cccc(Cl)c4Cl)CC3)cc2N1 | 449 | 433 | 438 | 473 | 471 | 449 | – | – | –
CO[C@@H]1C(N(C)C(=O)c2ccccc2)C[C@H]2O[C@]1(C)n1c3ccccc3c3c4c(c5c6ccccc6n2c5c31)C(=O)NC4=O (some centres not stated) | – | – | – | 401 | 372 | 369 | 324 | 289 | 327
N\C1=N\C2=C(N=C[N]2COC(CO)CO)C(=O)N1 | 445 | 449 | 448 | – | – | – | 444 | 387 | 449
COc1cc([C@@H]2c3cc4c(cc3[C@@H](O[C@@H]3O[C@@H]5CO[C@@H](c6cccs6)O[C@H]5[C@H](O)[C@H]3O)[C@H]3COC(=O)[C@H]23)OCO4)cc(OC)c1O | – | – | – | – | – | – | 329 | 319 | 284
COc1cc(N[S+](=O)([O-])c2ccc(N)cc2)nc(OC)n1 | 431 | 476 | 458 | 462 | 470 | 466 | – | – | –
CCN(CC)CCN1C(=O)\C(=N/C2=CC=CC=C12)CC3=CC=C(OC)C=C3 | 472 | 474 | 468 | 470 | 465 | 460 | – | – | –
